#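 Briefly, cells in 96-well plates were exposed to five compound concentrations for 48 h, and endpoints were estimated by linear interpolation. TGI is the concentration that stops growth completely.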
# Key:
# Assay in all cases: NCI-60 cell line screen, 48 h
# [1] = tested on: NCI-H23 lung
# [2] = tested on: MALME-3M melanoma
# [3] = tested on: OVCAR-4 ovarian
# [4] = tested on: CCRF-CEM leukemia
# [5] = tested on: UACC-62 melanoma
# [6] = tested on: LOX IMVI melanoma
# [7] = tested on: RPMI-8226 leukemia
# [8] = tested on: HCT-15 colon
# [9] = tested on: SK-MEL-5 melanoma
# [10] = tested on: NCI/ADR-RES ovarian
# [11] = tested on: T-47D breast
# [12] = tested on: MOLT-4 leukemia
# [13] = tested on: UO-31 renal
# [14] = tested on: HL-60(TB) leukemia
# [15] = tested on: MDA-MB-435
# [16] = tested on: PC-3 prostate
# [17] = tested on: SR leukemia
# [18] = tested on: RXF 393 renal
# [19] = tested on: NCI-H460 lung
# [20] = tested on: SK-MEL-28 melanoma
SMILES,TGI [1] [µM],TGI [2] [µM],TGI [3] [µM],TGI [4] [µM],TGI [5] [µM],TGI [6] [µM],TGI [7] [µM],TGI [8] [µM],TGI [9] [µM],TGI [10] [µM],TGI [11] [µM],TGI [12] [µM],TGI [13] [µM],TGI [14] [µM],TGI [15] [µM],TGI [16] [µM],TGI [17] [µM],TGI [18] [µM],TGI [19] [µM],TGI [20] [µM]
C/C=N\n1c(C)c(C#N)c(C#N)c1N,> 100,> 100,> 100,> 100,> 100,> 100,> 100,> 100,> 100,> 100,> 100,> 100,> 100,> 100,> 100,> 100,> 100,> 100,–,–
CNC(=O)C1CCCN1C(=O)C(Cc1cnc[nH]1)NC(=O)C1CCC(=O)N1 (configuration not stated),> 100,> 100,> 100,> 100,> 100,> 100,> 100,> 100,> 100,> 100,> 100,> 100,> 100,> 100,> 100,> 100,> 100,> 100,> 100,> 100
CC1=NN(C(=O)CC(=O)Nc2cccc(C)c2)C(=O)C1N=Nc1ccc(S(=O)(=O)c2ccc(N=NC3C(=O)N(C(=O)CC(=O)Nc4cccc(C)c4)N=C3C)cc2)cc1 (configuration not stated),> 100,> 100,> 100,> 100,> 100,> 100,> 100,> 100,> 100,> 100,> 100,> 100,> 100,> 100,> 100,> 100,> 100,> 100,> 100,> 100
CCCC(=O)NC(C(=O)OCC)(N1CCOCC1)C(F)(F)F (configuration not stated),> 100,> 100,> 100,> 100,> 100,> 100,> 100,> 100,> 100,> 100,> 100,> 100,> 100,> 100,> 100,> 100,> 100,> 100,–,> 100
CC1=CC(=O)[C@@H](O)[C@]2(C)[C@H]3[C@@]4(O)OC[C@@]35[C@@H](C[C@@H]12)OC(=O)C(OC(=O)CC1=CCCC1)[C@H]5[C@@H](C)[C@H]4O (some centres not stated),0.152,0.0666,0.284,0.136,0.21,0.0653,0.039,–,0.0713,1.21,> 23.2,2.53,0.449,0.237,0.443,0.733,> 100,0.234,0.133,1.25
CCC1c2[nH]c3ccccc3c2C[C@H]2C(=O)N3CCC[C@H]3C(=O)N12 (some centres not stated),> 100,> 100,> 100,–,> 100,> 100,> 100,> 100,> 100,> 100,> 100,> 100,> 100,> 100,> 100,> 100,> 100,> 100,–,> 100
Nc1ncnc2c1ncn2C1C=CC(COS(N)(=O)=O)C1 (configuration not stated),82.1,> 100,> 100,> 100,> 100,37.6,> 100,> 100,> 100,> 100,> 100,> 100,> 100,30.1,> 100,> 100,> 100,> 100,> 100,> 100
COc1cc([C@H]2CC(=O)C[C@@H](c3cc(OC)c(OC)c(OC)c3)C23C(=O)c2ccccc2C3=O)cc(OC)c1OC,> 100,> 100,> 100,> 100,> 100,> 100,> 100,> 100,> 100,> 100,> 100,> 100,> 100,> 100,> 100,> 100,> 100,> 100,> 100,> 100
CC1(C)CCCCCCC2CC2CCCCCC(C)(C)C1=O (configuration not stated),> 100,> 100,> 100,39.4,> 100,63.6,70.1,> 100,> 100,> 100,> 100,> 100,> 100,32.7,> 100,> 100,20.7,> 100,> 100,> 100
Cc1ccc2c(c1)C(C1Cc3cccc(C)c3C1=O)OC2=O (configuration not stated),> 100,> 100,> 100,> 100,> 100,> 100,88.3,> 100,> 100,> 100,> 100,> 100,> 100,> 100,> 100,> 100,> 100,> 100,> 100,> 100
Clc1ccc(C2=C(c3ccccc3)C(c3ccc(Cl)cc3)N3C(=N[C@H]4CCCC[C@@H]43)N2)cc1 (some centres not stated),28,34.8,21.4,26,31.4,25.4,7.56,18.8,24.8,28.1,31.4,22.7,26.4,10.9,27.6,21.8,5.56,27.6,11.1,26.5
C=C(C)[C@H]1C[C@@H]2O[C@@](O)(/C(C)=C\C(=O)/C=C(/C)C[C@H]3OC(=O)[C@@]24O[C@H]34)[C@@H]1O,–,> 100,> 100,> 100,> 100,> 100,> 100,> 100,> 100,> 100,> 100,> 100,–,> 100,> 100,> 100,> 100,97.6,> 100,> 100
